For one compound, self-dispersion profile results are on record in patent US20220218781A1, “COMPOSITION FOR ENHANCEMENT OF BIOAVAILABILITY OF PHYTOCHEMICALS AND PROCESS FOR PREPARATION THEREOF” (OLENE LIFE SCIENCES PRIVATE LIMITED, priority 2019, published 2022).

A short description of this data set: Comparative self-dispersion study in water. The data set is classed as physicochemical. The conditions noted are these: without mechanical stirring, test product vs. standard unformulated reference product. The procedure: A comparative self-dispersion study was carried out between the ‘Composition of Example 1 (Test product)’ and ‘Standard unformulated lutein extract (Reference product)’.
A comparative self-dispersion study was carried out between the ‘Composition of Example 13 (Test product)’ and ‘Standard unformulated Boswellia extract (Reference product)’.
A comparative self-dispersion study was carried out between the ‘Composition of Example 16 (Test product)’ and ‘Standard unformulated Pepper extract (Reference product)’.
A comparative self dispersion study was carried out between the ‘Composition of Example 22 (Test product)’ and ‘Standard unformulated Coenzyme Q10 Extract (Reference product)’.
A comparative self dispersion study was carried out between the ‘Composition of Example 25 (Test product)’ and ‘Standard unformulated Palmitoylethanolamide (Reference product)’. The dispersion profile is given in FIG. 7A (test product) and FIG. 7B (reference product).

On to `COC1=C(OC)C(=O)C(C/C=C(\C)CC/C=C(\C)CC/C=C(\C)CC/C=C(\C)CC/C=C(\C)CC/C=C(\C)CC/C=C(\C)CC/C=C(\C)CC/C=C(\C)CCC=C(C)C)=C(C)C1=O` [Coenzyme Q10], for which the self-dispersion profile entry was “non-dispersible”.
